# Results from patent publication US5965088A, “Method for providing rapid disinfection of contact lenses” (priority 1997, dated 1999).
# Where “and” joins values, the source holds several entries; their conditions need not be identical. Equal entries are not always repeated.
# Key:
# [1] = test system: Pseudomonas aeruginosa, Staphylococcus aureus, Serratia marcescens, Candida albicans, Fusarium solani; assay: Stand-Alone Procedure for Disinfecting Products, primary performance criteria; format: cell-based, bacteria, yeast and mold; conditions: for one hour stand-alone test for bacteria: 1 hr, bacteria only
# Description: This Example illustrates the microbiocidal efficacy of solutions according to the present invention. The antimicrobial efficacy of each of various compositions for the chemical disinfection of contact lenses was evaluated. Microbial challenge inoculums were prepared using Pseudomonas aeruginosa (ATCC 9027), Staphylococcus aureus (ATCC 6538), Serratia marcescens (ATCC 13880), Candida albicans (ATCC 10231), and Fusarium solani (ATCC 36031). The test organisms were cultured on appropriate agar and the cultures were harvested using sterile DPBST (Dulbecco's Phosphate Buffered Saline plus 0.05% w/v polysorbate 80) or a suitable diluent and transferred to a suitable vessel. Spore suspensions were filtered through sterile glass wool to remove hyphal fragments. Serratia marcescens, as appropriate, was filtered (eg., through a 1.2 μ filter) to clarify the suspension. After harvesting, the suspension was centrifuged at no more than 5000× g for a maximum of 30 minutes at 20-25° C. The supernatant was poured off and resuspended in DPBST or other suitable diluent. The suspension was centrifuged a second time, and resuspended in DPBST or other suitable diluent. All challenge bacterial and fungal cell suspensions were adjusted with DPBST or other suitable diluent to 1×10^7 -10^8 cfu/mL. The appropriate cell concentration may be estimated by measuring the turbidity of the suspension, for example using a spectrophotometer at a preselected wavelength, for example 490 nm. One tube was prepared containing a minimum of 10 mL of test solution per challenge organism. Each tube of the solution to be tested was inoculated with a suspension of the test organism sufficient to provide a final count of 1.0×10^5 -10^6 cfu/mL, the volume of the inoculum not exceeding 1% of the sample volume. Dispersion of the inoculum was ensured by vortexing the sample for at least 15 seconds. The inoculated product was stored at 10-25° C. Aliquots in the amount of 1.0 mL were taken of the inoculated product for determination of viable counts after certain time periods of disinfection. The time points for the bacteria were 25, 50, 75, and 100% of the minimum disinfection time. Yeast and mold were tested at an additional timepoint of at least 400% of the minimum disinfection time. The suspension was mixed well by vortexing vigorously for at least 5 second. The 1.0 mL aliquots removed at the specified time intervals were subjected to a suitable series of decimal dilutions in validated neutralizing media. The suspensions were mixed vigorously and incubated for a suitable period of time to allow for neutralization of the microbial agent. The viable count of organisms was determined in appropriate dilutions by preparation of triplicate plates of trypticase soy (TSA) agar for bacteria and Sabouraud dextrose agar (SDA) for mold and yeast. The bacterial recovery plates were incubated at 30-35° C. for 2-4 days. The yeast was incubated at 20-30° C. for 2-4 days and mold recovery plates at 20-25° C. for 3-7 days. The average number of colony forming units was determined on countable plates. Countable plates refer to 30-300 cfu/plates for bacteria and yeast, and 8 to 80 cfu/plate for mold except when colonies are observed only for the 10^0 or 10^-1 dilution plates. The microbial reduction was then calculated at the specified time points. […] Following inoculation in a validated neutralizing broth and incubation for an appropriate period of time, the inoculum control must be between 1.0×10^5 -1.0×10^6 cfu/mL
# The solutions were evaluated based on the performance requirement referred to as the "Stand-Alone Procedure for Disinfecting Products" (hereafter the "stand-alone test") and is based on the Disinfection Efficacy Testing for contact lens care products under the Draft Premarket Notification (510(k)) Guidance Document For Contact Lens Care Products dated Apr. 1, 1996, prepared by the U.S. Food and Drug Administration, Division of Ophthalmic Devices. […]
# [2] = Ocular irritation screening study in the rabbit (Draize score, soaked soft lenses); format: in vivo; design: key to Draize macroscopic ocular score (weighted total): Draize weighted total score; max 110 per eye; conditions: rabbit, in vivo, topical or ocular; 4 ppm formulation; rabbits; read-out: safety margin relative to initial onset of abnormal ocular health
# Description: (§1) A series of formulations were prepared in which the amount of alexidine were, respectively 4 ppm (test 1), 6 ppm (test 2), 8 ppm (test 3), 10 ppm (test 4), 12 ppm (test 5), 15 ppm (test 6), 18 ppm (test 7), 22 ppm (test 8), 27 ppm (test 9), 33 ppm (test 10), 40 ppm (test 11) and 50 ppm (test 12). These test solutions of alexidine were used in soaking J&J Sure Vue® (etafilcon A) lenses (soft lenses) in 2.5 mL of solution for 1 week or more in order to reach maximal alexidine uptake.
# (§2) An ocular irritation screening study was conducted in the rabbit to determine the threshold for ocular irritation. Eyes treated with the lenses were compared to a contralateral control eye. Treated lenses were placed on the right eye of rabbits; control lenses were placed on the left eye. Any lenses displaced from the eyes during the lens wear day were reinserted after rinsing with 0.9% sodium chloride USP solution (SC). Eyes were examined with the aid of a direct light source before lens placement, at 50-70 minutes, 7-8 hours, 23-24 hours, and 30-32 hours after placement. Macroscopic observations were recorded in accordance with criteria in the Draize^* score system. The maximum total score is the sum of all scores obtained for the cornea, iris, and conjunctivae. Total maximum score possible is 110 per eye, 80 with respect to the cornea, 10 with respect to the iris, and 20 with respect to the conjunctivae.
# (§3) *Draize, J. H., G. Woodward and H. O. Calvery. 1944. Methods for the study of irritation and toxicity of substances applied topically to the skin and mucous membranes. J. Pharmacol. Exp. Ther. 82:377-390.
# [3] = test system: rabbit eye (cornea, iris, conjunctivae); assay: as above; format: in vivo; design: key to Draize macroscopic ocular score (weighted total): Draize weighted total score; max 110 per eye; conditions: for Draize macroscopic ocular score (weighted total): right (test) eye
# Description: as §1, §2, §3
structure (smiles),measurement,setting,value
"CCCCC(CC)CNC(=N)NC(=N)NCCCCCCNC(=N)NC(=N)NCC(CC)CCCC.Cl.Cl (stereo not drawn) [Alexidine.2HCl, 1,1 '-hexamethylenebis(5-(2-ethylhexyl)-biguanide) dihydrochloride]",one hour stand-alone test for bacteria,[1]; 1.0 ppm,will not pass the one hour stand-alone test for bacteria
same,one hour stand-alone test for bacteria,[1]; 2.0 ppm,passes the one hour stand-alone test for bacteria
same,one hour stand-alone test,[1]; 4.0 ppm alexidine in ReNu MPS,passed the one hour stand-alone test
same,stand-alone test,"[1]; 4.0 ppm, Example 6, 30, 45, 60 min, no rub or rinse","able to pass a stand-alone test (with no rub or rinse) at the 30 minute time point, 45 time point and the 60 minute time point"
same,stand-alone test,"[1]; 4.0 ppm, Example 7, 30, 45, 60 min","passed the stand alone test at 30 minutes, 45 minutes, and 60 minutes"
same,stand-alone test,"[1]; 4.0 ppm, Example 7, 15 min, with respect to Serratia marcescens and Candida albicans",only just passed the 15 minute stand-alone test
same,stand-alone test,"[1]; 4.0 ppm, Example 8, 30, 45, 60 min, without rubbing","passed the stand-alone test (without rubbing) at 30 minutes, 45 minutes, and 60 minutes"
same,stand-alone test,"[1]; 4.0 ppm, Example 8, 15 min, without rubbing",did not pass the test at 15 minutes
same,time required to pass a stand-alone procedure without rubbing,"[1]; 4.0 ppm, Tables 3, 4 and 5",at least 30 minutes
same,selectivity ratio,[2],2.5
same,safety in disinfecting soft lenses,"[3]; 4.0 ppm, based on rabbit studies",very safe for human use in disinfecting soft lenses
same,Draize macroscopic ocular score (weighted total),"[3]; 4 ppm, 7-8 hours post lens",2
same,Draize macroscopic ocular score (weighted total),"[3]; 4 ppm, 23-24 hours post lens",2
same,Draize macroscopic ocular score (weighted total),"[3]; 4 ppm, 30-32 hours post lens",2
same,Draize macroscopic ocular score (weighted total),"[3]; 4 ppm, 50-70 minutes post lens",2
same,Draize macroscopic ocular score (weighted total),"[3]; 6 ppm, 7-8 hours post lens",2
same,Draize macroscopic ocular score (weighted total),"[3]; 6 ppm, 23-24 hours post lens",2
same,Draize macroscopic ocular score (weighted total),"[3]; 6 ppm, 30-32 hours post lens",2
same,Draize macroscopic ocular score (weighted total),"[3]; 6 ppm, 50-70 minutes post lens",2
same,Draize macroscopic ocular score (weighted total),"[3]; 8 ppm, 7-8 hours post lens",2
same,Draize macroscopic ocular score (weighted total),"[3]; 8 ppm, 23-24 hours post lens",2
same,Draize macroscopic ocular score (weighted total),"[3]; 8 ppm, 30-32 hours post lens",2
same,Draize macroscopic ocular score (weighted total),"[3]; 8 ppm, 50-70 minutes post lens",2
same,Draize macroscopic ocular score (weighted total),"[3]; 10 ppm, 7-8 hours post lens, dihydrochloride",4 and 2
same,Draize macroscopic ocular score (weighted total),"[3]; 10 ppm, 50-70 minutes post lens",2
same,Draize macroscopic ocular score (weighted total),"[3]; 12 ppm, 7-8 hours post lens",2
same,Draize macroscopic ocular score (weighted total),"[3]; 12 ppm, 23-24 hours post lens",2
same,Draize macroscopic ocular score (weighted total),"[3]; 12 ppm, 30-32 hours post lens",2
same,Draize macroscopic ocular score (weighted total),"[3]; 12 ppm, 50-70 minutes post lens",2
same,Draize macroscopic ocular score (weighted total),"[3]; 15 ppm, 7-8 hours post lens",4
same,Draize macroscopic ocular score (weighted total),"[3]; 15 ppm, 30-32 hours post lens",2
same,Draize macroscopic ocular score (weighted total),"[3]; 15 ppm, 50-70 minutes post lens, dihydrochloride",2 and 4
same,Draize macroscopic ocular score (weighted total),"[3]; 18 ppm, 7-8 hours post lens",6
same,Draize macroscopic ocular score (weighted total),"[3]; 18 ppm, 23-24 hours post lens",2
same,Draize macroscopic ocular score (weighted total),"[3]; 18 ppm, 30-32 hours post lens",2
same,Draize macroscopic ocular score (weighted total),"[3]; 18 ppm, 50-70 minutes post lens",2
same,Draize macroscopic ocular score (weighted total),"[3]; 22 ppm, 7-8 hours post lens",11
same,Draize macroscopic ocular score (weighted total),"[3]; 22 ppm, 23-24 hours post lens",2
same,Draize macroscopic ocular score (weighted total),"[3]; 22 ppm, 30-32 hours post lens",2
same,Draize macroscopic ocular score (weighted total),"[3]; 22 ppm, 50-70 minutes post lens",2
same,Draize macroscopic ocular score (weighted total),"[3]; 27 ppm, 50-70 minutes post lens",2
same,conjunctival reaction clearly defined,[3]; lenses soaked in solution,15 ppm
same,corneal opacity observed,[3]; lenses soaked in solution,27 ppm
same,iridial involvement observed,[3]; lenses soaked in solution,22 ppm
same,first signs of increased ocular toxicity (conjunctival reactions),"[3]; lenses soaked, after 7-8 hours of lens wear",10 ppm
